What all share (assay): relative viability (nuclei count vs DMSO), 5 days (fraction); higher = more cells survive
Compound in assay [1]: CC1=CN=C(N=C1C2=CNC(=C2)C(=O)N[C@H](CO)C3=CC(=CC=C3)Cl)NC4=C(C=C(C=C4)F)Cl [VX-11e] + CC(C)C[C@H](NC(=O)[C@H](Cc1ccccc1)NC(=O)c1cnccn1)B(O)O [Bortezomib] (partner 0.002 µM)
The gist of the method:
(§1)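 After 5 days of treatment, lung cancer cells in 1536-well plates were fixed and stained in a single step (final 0.05% Triton X-100, 1% formaldehyde, 1 ug/ml Hoechst) and their nuclei counted on 4× images. Treatment had been applied by pin tool the day after seeding as one drug alone or as a fixed anchor-drug dose with five library-drug doses (not always all listed) in √10 steps. Relative viability is the nuclei count of treated wells divided by that of vehicle wells, and values are medians of duplicate plates.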

Compound in assay [2]: CC1=CN=C(N=C1C2=CNC(=C2)C(=O)N[C@H](CO)C3=CC(=CC=C3)Cl)NC4=C(C=C(C=C4)F)Cl [VX-11e] + Cc1nc(NC(=O)N2CCC[C@H]2C(N)=O)sc1-c1ccnc(C(C)(C)C(F)(F)F)c1 [Alpelisib] (partner 2 µM)
The gist of the method: as §1

Compound in assay [3]: CC1=CN=C(N=C1C2=CNC(=C2)C(=O)N[C@H](CO)C3=CC(=CC=C3)Cl)NC4=C(C=C(C=C4)F)Cl [VX-11e] + Cc1nc(Nc2ncc(C(=O)Nc3c(C)cccc3Cl)s2)cc(N2CCN(CCO)CC2)n1 [Dasatinib] (partner 0.075 µM)
A digest of the protocol: as §1

Compound in assay [4]: CC1=CN=C(N=C1C2=CNC(=C2)C(=O)N[C@H](CO)C3=CC(=CC=C3)Cl)NC4=C(C=C(C=C4)F)Cl [VX-11e] + CC(=O)c1c(C)c2cnc(Nc3ccc(N4CCNCC4)cn3)nc2n(C2CCCC2)c1=O [Palbociclib] (partner 0.5 µM)
The gist of the method: as §1

Consider NCI-H596, for which the relative viability in assay [1] (first compound 0.04 µM) stood at 0.953; in assay [1] (first compound 0.1265 µM) it was 1; in assay [1] (first compound 0.4 µM), 0.989; in assay [1] (first compound 1.265 µM), 0.645; in assay [1] (first compound 4 µM), 0.715; in assay [2] (first compound 0.04 µM), 0.504. The relative viability in assay [2] (first compound 0.1265 µM) is 0.458; in assay [2] (first compound 0.4 µM), 0.459; in assay [2] (first compound 1.265 µM) it was 0.48; in assay [2] (first compound 4 µM), 0.357; in assay [3] (first compound 0.04 µM), 0.542; in assay [3] (first compound 0.1265 µM) it was 0.516. Further, the relative viability in assay [3] (first compound 0.4 µM) was found to be 0.466; in assay [3] (first compound 1.265 µM) it was 0.425; in assay [3] (first compound 4 µM), 0.419.

Consider NCI-H2170, for which the relative viability in assay [4] (first compound 0.04 µM) was found to be 0.354; in assay [4] (first compound 0.1265 µM), 0.386; in assay [4] (first compound 0.4 µM), 0.381; in assay [4] (first compound 1.265 µM), 0.339; in assay [4] (first compound 4 µM) it was 0.424; in assay [2] (first compound 0.04 µM), 0.76. For the same cell line, the relative viability in assay [2] (first compound 0.1265 µM) is 0.71; in assay [2] (first compound 0.4 µM), 0.758; in assay [2] (first compound 1.265 µM) it was 0.719; in assay [2] (first compound 4 µM), 0.71; in assay [3] (first compound 0.04 µM), 0.339; in assay [3] (first compound 0.1265 µM) it was 0.664. Also, the relative viability in assay [3] (first compound 0.4 µM) amounted to 0.461; in assay [3] (first compound 1.265 µM), 0.341; in assay [3] (first compound 4 µM), 0.445.

For the cell line NCI-H3122, the relative viability in assay [4] (first compound 0.04 µM) was 0.211; in assay [4] (first compound 0.1265 µM), 0.164; in assay [4] (first compound 0.4 µM), 0.168; in assay [4] (first compound 1.265 µM), 0.166; in assay [4] (first compound 4 µM), 0.135; in assay [1] (first compound 0.04 µM), 1.11. The relative viability was 1.03 in assay [1] (first compound 0.1265 µM); 0.743 in assay [1] (first compound 0.4 µM); 0.832 in assay [1] (first compound 1.265 µM); 0.676 in assay [1] (first compound 4 µM); 0.652 in assay [2] (first compound 0.04 µM); 0.753 in assay [2] (first compound 0.1265 µM). The relative viability was 0.566 in assay [2] (first compound 0.4 µM); 0.672 in assay [2] (first compound 1.265 µM); 0.329 in assay [2] (first compound 4 µM); 0.7 in assay [3] (first compound 0.04 µM); 0.637 in assay [3] (first compound 0.1265 µM); 0.476 in assay [3] (first compound 1.265 µM). Further, in assay [3] (first compound 4 µM), the relative viability amounted to 0.224.

On to HCC-15, for which the relative viability came out at 0.838 in assay [4] (first compound 0.04 µM); 0.627 in assay [4] (first compound 0.1265 µM); 0.445 in assay [4] (first compound 1.265 µM); 0.249 in assay [4] (first compound 4 µM); 1.1 in assay [1] (first compound 0.04 µM); 1.07 in assay [1] (first compound 0.1265 µM). Further, the relative viability in assay [1] (first compound 0.4 µM) amounted to 0.754; in assay [1] (first compound 1.265 µM), 0.794; in assay [1] (first compound 4 µM) it was 0.428; in assay [2] (first compound 0.04 µM), 0.902; in assay [2] (first compound 0.1265 µM), 0.878; in assay [2] (first compound 0.4 µM), 0.753. Also, the relative viability in assay [2] (first compound 1.265 µM) worked out at 0.408; in assay [2] (first compound 4 µM), 0.165; in assay [3] (first compound 0.04 µM), 0.66; in assay [3] (first compound 0.1265 µM), 0.52; in assay [3] (first compound 1.265 µM), 0.243; in assay [3] (first compound 4 µM), 0.148.

Turning to NCI-H1915, the relative viability in assay [4] (first compound 0.04 µM) turned out to be 0.546; in assay [4] (first compound 0.1265 µM) it was 0.465; in assay [4] (first compound 0.4 µM), 0.481; in assay [4] (first compound 1.265 µM), 0.433; in assay [4] (first compound 4 µM), 0.217; in assay [1] (first compound 0.04 µM), 1.02. Further, the relative viability stood at 0.923 in assay [1] (first compound 0.1265 µM); 1.03 in assay [1] (first compound 0.4 µM); 0.939 in assay [1] (first compound 1.265 µM); 0.757 in assay [1] (first compound 4 µM); 1.08 in assay [2] (first compound 0.04 µM); 0.973 in assay [2] (first compound 0.1265 µM). In addition, the relative viability was found to be 1.08 in assay [2] (first compound 0.4 µM); 0.978 in assay [2] (first compound 1.265 µM); 0.652 in assay [2] (first compound 4 µM); 0.288 in assay [3] (first compound 0.04 µM); 0.291 in assay [3] (first compound 0.1265 µM); 0.25 in assay [3] (first compound 0.4 µM). The relative viability amounted to 0.267 in assay [3] (first compound 1.265 µM) and 0.217 in assay [3] (first compound 4 µM).

As for NCI-H2342, the relative viability in assay [4] (first compound 0.1265 µM) is 0.542; in assay [4] (first compound 0.4 µM), 0.521; in assay [4] (first compound 1.265 µM), 0.568; in assay [4] (first compound 4 µM) it was 0.515; in assay [3] (first compound 0.04 µM) it was 0.31; in assay [3] (first compound 0.1265 µM), 0.282. In addition, the relative viability worked out at 0.285 in assay [3] (first compound 0.4 µM), 0.307 in assay [3] (first compound 1.265 µM) and 0.348 in assay [3] (first compound 4 µM).

As for NCI-H1944, the relative viability in assay [4] (first compound 0.04 µM) amounted to 0.323; in assay [4] (first compound 0.1265 µM) it was 0.343; in assay [4] (first compound 0.4 µM), 0.338; in assay [4] (first compound 1.265 µM) it was 0.264; in assay [4] (first compound 4 µM) it was 0.205; in assay [2] (first compound 0.04 µM), 0.843. The relative viability was found to be 0.809 in assay [2] (first compound 0.1265 µM); 0.785 in assay [2] (first compound 0.4 µM); 0.557 in assay [2] (first compound 1.265 µM); 0.399 in assay [2] (first compound 4 µM); 0.203 in assay [3] (first compound 0.04 µM); 0.207 in assay [3] (first compound 0.1265 µM). Further, the relative viability in assay [3] (first compound 1.265 µM) came out at 0.2; in assay [3] (first compound 4 µM), 0.154.

In the case of NCI-H1648, the relative viability is 0.305 in assay [4] (first compound 0.1265 µM), 0.301 in assay [4] (first compound 0.4 µM), 0.331 in assay [4] (first compound 1.265 µM) and 0.314 in assay [4] (first compound 4 µM).

Consider A549, for which the relative viability in assay [2] (first compound 0.04 µM) was determined as 0.737; in assay [2] (first compound 0.1265 µM), 0.622; in assay [2] (first compound 0.4 µM), 0.451; in assay [2] (first compound 1.265 µM) it was 0.313; in assay [2] (first compound 4 µM), 0.0519.

Consider EBC-1, for which the relative viability in assay [1] (first compound 0.04 µM) was 0.512; in assay [1] (first compound 0.1265 µM) it was 0.528; in assay [1] (first compound 0.4 µM), 0.599; in assay [1] (first compound 1.265 µM), 0.576; in assay [1] (first compound 4 µM), 0.239; in assay [2] (first compound 0.04 µM), 0.816. In addition, the relative viability in assay [2] (first compound 0.1265 µM) is 0.766; in assay [2] (first compound 0.4 µM) it was 0.632; in assay [2] (first compound 1.265 µM), 0.693; in assay [2] (first compound 4 µM), 0.23.

On to SW 900, for which the relative viability in assay [4] (first compound 0.04 µM) was found to be 0.421; in assay [4] (first compound 0.1265 µM) it was 0.422; in assay [4] (first compound 1.265 µM), 0.518; in assay [4] (first compound 4 µM), 0.482; in assay [3] (first compound 0.04 µM) it was 0.59; in assay [3] (first compound 0.1265 µM), 0.588. Further, the results for the relative viability in assay [3] (first compound 0.4 µM), in assay [3] (first compound 1.265 µM) and in assay [3] (first compound 4 µM) were 0.137, 0.585 and 0.385, respectively.
